Assay results published in US20080027008A1, “Antitumorigenic Drug Combination” (priority 2006, published 2008).

Test system: Dogs with Lymphoma
Experiment: Efficacy Study for Treatment of Dogs with Lymphoma
Type: in vivo
Conditions: treatment received population of dogs
Experimental: Twenty-five (25) dogs of varying sex, weight, breed and age (5.5-14.0 yrs) were entered for the study. […] All dogs entered for study had received prior chemotherapy and enrolled to the study following disease relapse.
All dogs were treated with N-[2-[(4-HYDROXYPHENYL)AMINO]-3-PYRIDYL]-4-METHOXYBENZENESULFONAMIDE at an initial dose of 350 mg/m2 PO QD for 7 days then treated at 350 mg/m2 EOD×21 days. If no significant objective response or doselimiting toxicities were noted after 28 days on therapy, a QD regimen was restarted for 7 days. Otherwise, dogs continued on EOD dosing until study discontinuation.
All dogs were treated with ABT-510 at a dose of 1 mg/kg SQ divided BID starting 24 hours after the first dose of N-[2-[(4-HYDROXYPHENYL)AMINO]-3-PYRIDYL]-4-METHOXYBENZENESULFONAMIDE was administered.
Dogs treated with N-[2-[(4-HYDROXYPHENYL)AMINO]-3-PYRIDYL]-4-METHOXYBENZENESULFONAMIDE and ABT-510 therapy were evaluated at Day 0, Day 7, Day 28 then every 28 days thereafter. Assessment of tumor burden was made based on measurement of target lymph nodes (no more than 3 nodes/animal). The lymph node volume (I×w×h) was calculated for each target lymph node and assessed as a sum of total tumor burden. Standard response endpoints were evaluated based on the criteria below: • Complete response (CR) is defined as disappearance of all clinical evidence of cancer and of any signs related to the cancer. • Partial response (PR) is defined as a 50% or greater decrease in the sum of the products of measurements for representative lesions, without an increase in size of any lesions or appearance of any new lesions. • Minimal response (MR) is defined as a 25% or greater decrease in the sum of the products of measurements for representative lesions, without an increase in size of any lesions or appearance of any new lesions. • Stable disease is defined as no response or a response of less than that defined for partial response or progressive disease without appearance of any new lesions or worsening of clinical signs. • Progressive disease is defined as an unequivocal increase of at least 50% in the size of any measurable lesion or appearance of new lesions.
The Intent-to-Treat population included all 25 dogs enrolled in the study. Five (5) dogs withdrew from the study early due to their inability to receive N-[2-[(4-HYDROXYPHENYL)AMINO]-3-PYRIDYL]-4-METHOXYBENZENESULFONAMIDE and ABT-510 longer than 7 days. Four (4) of these dogs withdrew due to rapid lymphoma progression. One (1) dog withdrew due to owner decision related to side effects while receiving study agents.
The Treatment Received population included dogs who received N-[2-[(4-HYDROXYPHENYL)AMINO]-3-PYRIDYL]-4-METHOXYBENZENESULFONAMIDE and ABT-510 therapy for longer than 7 days. […]

COc1ccc(S(=O)(=O)Nc2cccnc2Nc2ccc(O)cc2)cc1 [Single Agent, N-[2-[(4-HYDROXYPHENYL)AMINO]-3-PYRIDYL]-4-METHOXYBENZENESULFONAMIDE]
Response Duration, Mean (mean): Mean = 65 days
Time to Progression, Mean (mean): Mean = 21 days
Response Duration, Median (median): Median = 24 days
Time to Progression, Median (median): Median = 18 days
